Here are results for 11 molecules from patent publication US7988952B2, “Delivery of drug esters through an inhalation route” (Alexza Pharmaceuticals, Inc., priority 2001, dated 2011).

Where only a bound is given, the exact number is not on record here.

Data set [1] is described as follows: Volatilization from halogen bulb; purity of the aerosol by reverse-phase HPLC. Type of data set: physicochemical. As to conditions: thermal vapor from coated aluminum foil on 300 watt halogen tube, 60 V 5-12 s or 90 V 2.5-3.5 s; HPLC at 225 nm. The procedure:
A solution of drug in approximately 120 μL dichloromethane is coated on a 3.5 cm×7.5 cm piece of aluminum foil (precleaned with acetone). The dichloromethane is allowed to evaporate. The coated foil is wrapped around a 300 watt halogen tube (Feit Electric Company, Pico Rivera, Calif.), which is inserted into a glass tube sealed at one end with a rubber stopper. Running 60 V of alternating current (driven by line power controlled by a variac) through the bulb for 5-12 s or 90 V for 2.5-3.5 s affords thermal vapor (including aerosol), which is collected on the glass tube walls. (When desired, the system is flushed through with argon prior to volatilization.) Reverse-phase HPLC analysis with detection by absorption of 225 nm light is used to determine the purity of the aerosol.
Table 1, which follows, provides data from drugs volatilized using the above-recited general procedure.

Data set [2] in a line: Human serum hydrolysis studies of drug esters. As to conditions: 37° C., read-out: t1/2 for hydrolysis. Type of data set: in vitro ADME. The procedure: Human serum (2.34 mL) is placed in a test tube. To the serum is added 260 μL of a 10 mM solution of drug ester in acetonitrile. The tube is placed in a 37° C. incubator, and at various time points a 500 μL aliquot is removed. The aliquot is mixed with 500 μL methanol, and the mixture is vortex mixed and centrifuged. A sample of the supernatant is analyzed by HPLC obtain the ratio of drug ester to drug acid or drug alcohol. An Arrhenius plot of the data provides a t1/2 for hydrolysis.

Data set [3] in a line: Hydrolysis studies of drug esters in PBS solution (pH 7.5). It counts as physicochemical. As to conditions: PBS pH 7.5, room temperature, read-out: t1/2 for hydrolysis. The procedure: Drug ester (20 μL, 10 mM acetonitrile) is added to 1 mL PBS solution (pH 7.5) at room temperature. At intermittent time points, an aliquot of the resulting mixture is injected into an HPLC to obtain the ratio of drug ester to drug acid or drug alcohol. An Arrhenius plot of the data provides a t1/2 for hydrolysis.

Turning to `CC(=O)Oc1ccc2c(c1OC(C)=O)-c1cccc3c1C(C2)N(C)CC3.Cl` (stereo not drawn) [Apomorphine Diacetate-HCl], in data set [1], the “AEROSOL PURITY” value was determined as 94%.

On to `CCOC(=O)Cc1c(C)n(C(=O)c2ccc(Cl)cc2)c2ccc(OC)cc12` [Indomethacin Ethyl Ester], for which the “AEROSOL PURITY” value in data set [1] is listed as more than 99%.

As to `COC(=O)Cc1c(C)n(C(=O)c2ccc(Cl)cc2)c2ccc(OC)cc12` [Indomethacin Methyl Ester], the “AEROSOL PURITY” value in data set [1] is on record as 99%.

As for `COc1ccc2c(c1)c(CC(=O)OCCN(C)C)c(C)n2C(=O)c1ccc(Cl)cc1` [Indomethacin Norcholine Ester], the “AEROSOL PURITY” value in data set [1] was 100%.

Turning to `CCOC(=O)C(C)c1cccc(C(=O)c2ccccc2)c1` (stereo not drawn) [Ketoprofen Ethyl Ester], in data set [2], the half-life at 1 mM was found to be 3.73 h. For the same molecule, the half-life at 0.196 mM in data set [3] is more than 48 h. The “AEROSOL PURITY” value in data set [1] is given as 99.65%.

Turning to `COC(=O)C(C)c1cccc(C(=O)c2ccccc2)c1` (stereo not drawn) [Ketoprofen Methyl Ester], the half-life at 1 mM in data set [2] is 2.4 h. For the same molecule, in data set [3], the half-life at 0.196 mM was more than 48 h. For the same molecule, in data set [1], the “AEROSOL PURITY” value turned out to be 99%.

In the case of `CC(C(=O)OCCN(C)C)c1cccc(C(=O)c2ccccc2)c1` (stereo not drawn) [Ketoprofen Norcholine Ester], in data set [1], the “AEROSOL PURITY” value is reported as 100%.

Take `CCOC(=O)C1CCn2c(C(=O)c3ccccc3)ccc21` (stereo not drawn) [Ketorolac Ethyl Ester]: the “AEROSOL PURITY” value in data set [1] is recorded as more than 99%.

Turning to `COC(=O)C1CCn2c(C(=O)c3ccccc3)ccc21` (stereo not drawn) [Ketorolac Methyl Ester], the “AEROSOL PURITY” value in data set [1] was 100%.

Consider `CN(C)CCOC(=O)C1CCn2c(C(=O)c3ccccc3)ccc21` (stereo not drawn) [Ketorolac Norcholine Ester, 2-(N,N-Dimethylamino)Ethyl Ester of Ketorolac], for which, in data set [1], the “AEROSOL PURITY” value came to 100%.

In the case of Apomorphine Diacetate, the “AEROSOL PURITY” value in data set [1] amounted to 96.9%.
